From the NIST ThermoML archive (doi:10.1016/j.tca.2015.01.022)
Where “and” joins values, the source holds several entries; their conditions need not be identical. Equal entries are not always repeated.

Experiment: molar heat capacity at constant pressure
Conditions: 101.33 kPa, Small (less than 1 g) adiabatic calorimetry

CCCCCCCC[n+]1ccn(C)c1.F[B-](F)(F)F [1-methyl-3-octylimidazolium tetrafluoroborate]
molar heat capacity at constant pressure
Conditions | Crystal | Glass
5 K | 1.51 J/K/mol | 1.78 J/K/mol
5.07 K | – | 1.855 J/K/mol
5.13 K | 1.622 J/K/mol | –
5.35 K | – | 2.152 J/K/mol
5.41 K | 1.892 J/K/mol | –
5.63 K | – | 2.475 J/K/mol
5.69 K | 2.194 J/K/mol | –
5.92 K | – | 2.835 J/K/mol
5.98 K | 2.524 J/K/mol | –
6.24 K | – | 3.263 J/K/mol
6.3 K | 2.928 J/K/mol | –
6.6 K | – | 3.776 J/K/mol
6.66 K | 3.407 J/K/mol | –
6.96 K | – | 4.337 J/K/mol
7.03 K | 3.928 J/K/mol | –
7.33 K | – | 4.94 J/K/mol
7.4 K | 4.511 J/K/mol | –
7.7 K | – | 5.576 J/K/mol
7.78 K | 5.114 J/K/mol | –
8.08 K | – | 6.258 J/K/mol
8.15 K | 5.768 J/K/mol | –
8.46 K | – | 6.988 J/K/mol
8.54 K | 6.47 J/K/mol | –
8.84 K | – | 7.752 J/K/mol
8.92 K | 7.205 J/K/mol | –
9.23 K | – | 8.549 J/K/mol
9.31 K | 7.974 J/K/mol | –
9.61 K | – | 9.38 J/K/mol
9.7 K | 8.786 J/K/mol | –
10 K | 9.42 J/K/mol | 10.23 J/K/mol and 10.24 J/K/mol
10.1 K | 9.617 J/K/mol | –
10.5 K | – | 11.4 J/K/mol
10.6 K | 10.74 J/K/mol | –
11.11 K | – | 12.83 J/K/mol
11.21 K | 12.14 J/K/mol | –
11.73 K | – | 14.33 J/K/mol
11.82 K | 13.61 J/K/mol | –
12.34 K | – | 15.89 J/K/mol
12.44 K | 15.14 J/K/mol | –
12.96 K | – | 17.5 J/K/mol
13.07 K | 16.72 J/K/mol | –
13.58 K | – | 19.15 J/K/mol
13.69 K | 18.35 J/K/mol | –
14.2 K | – | 20.8 J/K/mol
14.32 K | 20 J/K/mol | –
14.83 K | – | 22.52 J/K/mol
14.96 K | 21.77 J/K/mol | –
15 K | 21.91 J/K/mol | 23.07 J/K/mol
15.57 K | – | 24.74 J/K/mol
15.71 K | 23.92 J/K/mol | –
16.43 K | – | 27.33 J/K/mol
16.57 K | 26.44 J/K/mol | –
17.29 K | – | 29.78 J/K/mol
17.43 K | 28.91 J/K/mol | –
18.15 K | – | 32.35 J/K/mol
18.3 K | 31.39 J/K/mol | –
19.01 K | – | 34.88 J/K/mol
19.17 K | 33.9 J/K/mol | –
19.88 K | – | 37.39 J/K/mol
20 K | 36.32 J/K/mol | 37.79 J/K/mol
20.05 K | 36.43 J/K/mol | –
21.09 K | – | 41.05 J/K/mol
21.26 K | 40.04 J/K/mol | –
22.65 K | – | 45.73 J/K/mol
22.82 K | 44.72 J/K/mol | –
24.21 K | – | 50.47 J/K/mol
24.39 K | 49.42 J/K/mol | –
25 K | 51.22 J/K/mol | 52.78 J/K/mol
25.78 K | – | 55.12 J/K/mol
25.97 K | 54.13 J/K/mol | –
27.35 K | – | 59.68 J/K/mol
27.55 K | 58.67 J/K/mol | –
28.87 K | – | 64.05 J/K/mol
29.08 K | 63.06 J/K/mol | –
30 K | 65.66 J/K/mol | 67.29 J/K/mol
30.42 K | – | 68.44 J/K/mol
30.66 K | 67.49 J/K/mol | –
32.16 K | – | 73.29 J/K/mol
32.42 K | 72.33 J/K/mol | –
34.07 K | – | 78.36 J/K/mol
34.34 K | 77.4 J/K/mol | –
35 K | 79.1 J/K/mol | 80.71 J/K/mol
35.98 K | – | 83.21 J/K/mol
36.27 K | 82.31 J/K/mol | –
37.9 K | – | 87.91 J/K/mol
38.19 K | 87.1 J/K/mol | –
39.82 K | – | 92.51 J/K/mol
40 K | 91.48 J/K/mol | 92.99 J/K/mol
40.12 K | 91.75 J/K/mol | –
41.83 K | – | 97.3 J/K/mol
42.14 K | 96.59 J/K/mol | –
43.94 K | – | 102.2 J/K/mol
44.27 K | 101.5 J/K/mol | –
45 K | 103.2 J/K/mol | 104.6 J/K/mol
46.06 K | – | 107 J/K/mol
46.4 K | 106.3 J/K/mol | –
48.18 K | – | 111.7 J/K/mol
48.53 K | 111 J/K/mol | –
50 K | 114.1 J/K/mol | 115.6 J/K/mol
50.3 K | – | 116.2 J/K/mol
50.66 K | 115.5 J/K/mol | –
52.42 K | – | 120.6 J/K/mol
52.79 K | 119.8 J/K/mol | –
54.54 K | – | 124.8 J/K/mol
54.93 K | 124 J/K/mol | –
56.66 K | – | 128.7 J/K/mol
57.07 K | 128 J/K/mol | –
58.79 K | – | 132.7 J/K/mol
59.21 K | 131.9 J/K/mol | –
60 K | 133.3 J/K/mol | 135 J/K/mol
60.93 K | – | 136.6 J/K/mol
61.36 K | 135.7 J/K/mol | –
63.07 K | – | 140.4 J/K/mol
63.51 K | 139.5 J/K/mol | –
65.21 K | – | 144.2 J/K/mol
65.66 K | 143 J/K/mol | –
67.34 K | – | 147.9 J/K/mol
67.81 K | 146.6 J/K/mol | –
69.48 K | – | 151.6 J/K/mol
69.96 K | 150.1 J/K/mol | –
70 K | 150.1 J/K/mol | 152.5 J/K/mol
71.72 K | – | 155.5 J/K/mol
72.22 K | 153.7 J/K/mol | –
